This note sets out measurements from patent US20260207563A1, “UREA COMPOUNDS AS ACTIVATORS OF POTASSIUM CHANNELS KV7.2/7.3 USEFUL IN THE TREATMENT OF CNS AND PNS DISORDERS” (ANGELINI PHARMA S.P.A., priority 2022, published 2026).

Common to all, as to format: cell-based
For assay [1], the target named is T1, heteromeric KV7.2/KV7.3 channels (KCNQ2, KCNQ3) (Homo sapiens, UniProt O43525+O43526).
T1 construct: expressed in transfected cells; host or cells: CHO-K1
Nature of the assay: Automated patch-clamp (Sophion Qube 384) potency assay against KV7.2/KV7.3 channels. As to conditions: CHO-K1/Kv7.2/Kv7.3 cells; for EC50: EC50 from concentration-response of shift in Vhalf, 10 concentrations up to 30 μM, read-out: Kv7.2/7.3 EC50; for Kv7.2/7.3 ΔV1/2: maximal shift in the Vhalf from the top of the curve. In a few lines:
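Whole-cell automated patch clamp on CHO-K1 cells stably expressing human KV7.2/KV7.3, held at −80 mV; I-V steps −100 to +20 mV (1 s) with 0 mV tail pulses, Boltzmann-fitted activation curves. Ten concentrations (1:3 from 30 μM, quadruplicate) versus 0.3% DMSO control; EC50 and maximal shift from 4-parameter fits of Vhalf shift.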

The target of assay [2] is T2, homomeric KV7.4 channel (KCNQ4) (Homo sapiens, UniProt P56696).
T2 construct: host or cells: CHO-K1
Description: Automated patch-clamp (Qube) counter-screening assay against KV7.4 channel. To be noted: CHO-K1 cells expressing KV7.4; class by maximal shift in the Vhalf at 30 μM. Put shortly: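 CHO-K1 cells stably expressing homomeric human KV7.4 were recorded on the Qube automated patch clamp. Ten concentrations (1:3 dilutions from 30 μM) were tested in quadruplicate. The mean Vhalf shift was fitted with a 4-parameter logistic to give EC50 and maximal Vhalf shift, and selectivity was based on the shift at 30 μM.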

Assay [3] concerns the target T3, heteromeric KV7.3/KV7.5 channel (KCNQ3, KCNQ5) (Homo sapiens, UniProt O43525+Q9NR82).
T3 construct: host or cells: HEK293
Description: Automated patch-clamp counter-screening against KV7.3/KV7.5 channel. As to conditions: HEK293 cells expressing Kv7.3/KV7.5; class by maximal shift in the Vhalf at 30 μM. Put shortly: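 HEK293 cells with constitutive Kv7.3 and tetracycline-inducible Kv7.5 were recorded by automated patch clamp. Ten concentrations (1:3 series from 30 μM, quadruplicate) were tested; Vhalf shifts were fitted with a 4-parameter logistic to give EC50 and maximal Vhalf shift, with selectivity based on the shift at 30 μM.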

Turning to `O=C(NCc1ccnc(OCC(F)(F)F)c1)NC1CCc2ccc(F)cc21` (racemic) [Compound 81, (±)-1-(6-Fluoro-2,3-dihydro-1H-inden-1-yl)-3-((2-(2,2,2-trifluoroethoxy)pyridin-4-yl)methyl)urea], in assay [1], the EC50 came out at 0.31 µM and the “Kv7.2/7.3 ΔV1/2” value is recorded as 14.75 mV. In assay [2], the Kv7.4 selectivity criteria result was “A (Selective compounds showed Kv7.4 and/or Kv7.3/7.5 ΔV1/2 equal to or lower than 15 mV (letter A in table 3))”. The Kv7.3/7.5 selectivity criteria entry in assay [3] is recorded as “A (Selective compounds showed Kv7.4 and/or Kv7.3/7.5 ΔV1/2 equal to or lower than 15 mV (letter A in table 3))”.

Regarding `C[C@H](NC(=O)N[C@@H]1CCc2ccc(F)cc21)c1ccnc(OCC(F)(F)F)n1` [Compound 110], in assay [1], the EC50 came to 1.92 µM and the “Kv7.2/7.3 ΔV1/2” value worked out at 28.73 mV. In assay [2], the Kv7.4 selectivity criteria result was “A (Selective compounds showed Kv7.4 and/or Kv7.3/7.5 ΔV1/2 equal to or lower than 15 mV (letter A in table 3))”. Further, in assay [3], the Kv7.3/7.5 selectivity criteria result is listed as “B (Non-selective compounds showed Kv7.4 and/or Kv7.3/7.5 ΔV1/2 higher than 15 mV (letter B in table 3))”.

Consider `O=C(NCCC1(C(F)(F)F)CC1)NCc1ccnc(OCC(F)F)c1` [Compound 18, 1-((2-(2,2-Difluoroethoxy)pyridin-4-yl)methyl)-3-(2-(1-(trifluoromethyl)cyclopropyl)ethyl)urea], for which, in assay [1], the EC50 amounted to 0.649 µM and the “Kv7.2/7.3 ΔV1/2” value is listed as 24.69 mV. Further, in assay [2], the Kv7.4 selectivity criteria result was “A (Selective compounds showed Kv7.4 and/or Kv7.3/7.5 ΔV1/2 equal to or lower than 15 mV (letter A in table 3))”. The Kv7.3/7.5 selectivity criteria entry in assay [3] is reported as “A (Selective compounds showed Kv7.4 and/or Kv7.3/7.5 ΔV1/2 equal to or lower than 15 mV (letter A in table 3))”.

For the molecule `N#Cc1cccc2c1CC[C@@H]2NC(=O)NCc1ccnc(OCC(F)(F)F)c1` [Compound 160], in assay [1], the EC50 amounted to 3.18 µM and the “Kv7.2/7.3 ΔV1/2” value is 25.41 mV. Moreover, the Kv7.4 selectivity criteria result in assay [2] is “A (Selective compounds showed Kv7.4 and/or Kv7.3/7.5 ΔV1/2 equal to or lower than 15 mV (letter A in table 3))”. Besides, the Kv7.3/7.5 selectivity criteria result in assay [3] was “A (Selective compounds showed Kv7.4 and/or Kv7.3/7.5 ΔV1/2 equal to or lower than 15 mV (letter A in table 3))”.

In the case of `O=C(NCc1ccnc(C(F)(F)F)c1)Nc1cc(F)cc(Cl)c1` [Compound 102], in assay [1], the EC50 stood at 3.83 µM and the “Kv7.2/7.3 ΔV1/2” value turned out to be 35.23 mV. Moreover, in assay [2], the Kv7.4 selectivity criteria entry is “B (Non-selective compounds showed Kv7.4 and/or Kv7.3/7.5 ΔV1/2 higher than 15 mV (letter B in table 3))”. In addition, the Kv7.3/7.5 selectivity criteria result in assay [3] is given as “B (Non-selective compounds showed Kv7.4 and/or Kv7.3/7.5 ΔV1/2 higher than 15 mV (letter B in table 3))”.

`C[C@@H](NC(=O)NCCC1(C(F)(F)F)CC1)c1ccnc(OCC(F)(F)F)c1` [Compound 65, (R)-1-(1-(2-(2,2,2-Trifluoroethoxy)pyridin-4-yl)ethyl)-3-(2-(1-(trifluoromethyl)cyclopropyl)ethyl)urea]: in assay [1], the EC50 worked out at 0.152 µM and the “Kv7.2/7.3 ΔV1/2” value was 26.28 mV. Also, the Kv7.4 selectivity criteria entry in assay [2] is “A (Selective compounds showed Kv7.4 and/or Kv7.3/7.5 ΔV1/2 equal to or lower than 15 mV (letter A in table 3))”. Besides, in assay [3], the Kv7.3/7.5 selectivity criteria result was “A (Selective compounds showed Kv7.4 and/or Kv7.3/7.5 ΔV1/2 equal to or lower than 15 mV (letter A in table 3))”.

Take `O=C(NCc1ccnc(OCC(F)(F)F)c1)N[C@@H]1CCc2ccccc2C1` [Compound 115]: in assay [1], the EC50 was found to be 0.479 µM and the “Kv7.2/7.3 ΔV1/2” value is given as 21.89 mV. Also, the Kv7.4 selectivity criteria entry in assay [2] is “A (Selective compounds showed Kv7.4 and/or Kv7.3/7.5 ΔV1/2 equal to or lower than 15 mV (letter A in table 3))”. Further, the Kv7.3/7.5 selectivity criteria entry in assay [3] is recorded as “A (Selective compounds showed Kv7.4 and/or Kv7.3/7.5 ΔV1/2 equal to or lower than 15 mV (letter A in table 3))”.

Consider `O=C(NCc1ccnc(OCC(F)(F)F)c1)N[C@@H]1CCc2ccc(F)cc21` [Compound 86, (R)-1-(6-fluoro-2,3-dihydro-1H-inden-1-yl)-3-((2-(2,2,2-trifluoroethoxy)pyridin-4-yl)methyl)urea], for which, in assay [1], the EC50 was 1.35 µM and the “Kv7.2/7.3 ΔV1/2” value is given as 38.89 mV. Also, the Kv7.4 selectivity criteria entry in assay [2] is recorded as “A (Selective compounds showed Kv7.4 and/or Kv7.3/7.5 ΔV1/2 equal to or lower than 15 mV (letter A in table 3))”. The Kv7.3/7.5 selectivity criteria result in assay [3] is “A (Selective compounds showed Kv7.4 and/or Kv7.3/7.5 ΔV1/2 equal to or lower than 15 mV (letter A in table 3))”.

Take `O=C(NCCC1(C(F)(F)F)CC1)NCc1cc(OCC(F)(F)F)nc(C(F)(F)F)c1` [Compound 82, 1-((2-(2,2,2-Trifluoroethoxy)-6-(trifluoromethyl)pyridin-4-yl)methyl)-3-(2-(1-(trifluoromethyl)cyclopropyl)ethyl)urea]: in assay [1], the EC50 is 2.15 µM and the “Kv7.2/7.3 ΔV1/2” value was 18.38 mV. For the same molecule, the Kv7.4 selectivity criteria result in assay [2] was “B (Non-selective compounds showed Kv7.4 and/or Kv7.3/7.5 ΔV1/2 higher than 15 mV (letter B in table 3))”. For the same molecule, the Kv7.3/7.5 selectivity criteria entry in assay [3] is recorded as “A (Selective compounds showed Kv7.4 and/or Kv7.3/7.5 ΔV1/2 equal to or lower than 15 mV (letter A in table 3))”.

Consider `O=C(NCc1ccnc(C(O)C(F)(F)F)c1)N[C@@H]1CCc2ccc(F)cc21` (stereo partly shown) [Compound 113], for which, in assay [1], the EC50 was 7.64 µM and the “Kv7.2/7.3 ΔV1/2” value is recorded as 27.22 mV. In addition, the Kv7.4 selectivity criteria result in assay [2] is given as “A (Selective compounds showed Kv7.4 and/or Kv7.3/7.5 ΔV1/2 equal to or lower than 15 mV (letter A in table 3))”. In addition, the Kv7.3/7.5 selectivity criteria entry in assay [3] is recorded as “B (Non-selective compounds showed Kv7.4 and/or Kv7.3/7.5 ΔV1/2 higher than 15 mV (letter B in table 3))”.

On to `O=C(NCCC1(C(F)(F)F)CC1)NCc1ccnc(OCCC(F)(F)F)c1` [Compound 74, 1-(2-(1-(Trifluoromethyl)cyclopropyl)ethyl)-3-((2-(3,3,3-trifluoropropoxy)pyridin-4-yl)methyl)urea], for which, in assay [1], the EC50 is 1.78 µM and the “Kv7.2/7.3 ΔV1/2” value came to 26.68 mV. In assay [2], the Kv7.4 selectivity criteria result is “A (Selective compounds showed Kv7.4 and/or Kv7.3/7.5 ΔV1/2 equal to or lower than 15 mV (letter A in table 3))”. Also, the Kv7.3/7.5 selectivity criteria entry in assay [3] is given as “A (Selective compounds showed Kv7.4 and/or Kv7.3/7.5 ΔV1/2 equal to or lower than 15 mV (letter A in table 3))”.

As for `O=C(NCc1ccnc(OCC(F)(F)F)c1)N[C@@H]1COc2ccc(F)cc21` [Compound 165], in assay [1], the EC50 was 2.66 µM and the “Kv7.2/7.3 ΔV1/2” value is reported as 28.4 mV. Also, in assay [2], the Kv7.4 selectivity criteria result is recorded as “A (Selective compounds showed Kv7.4 and/or Kv7.3/7.5 ΔV1/2 equal to or lower than 15 mV (letter A in table 3))”. The Kv7.3/7.5 selectivity criteria entry in assay [3] is reported as “A (Selective compounds showed Kv7.4 and/or Kv7.3/7.5 ΔV1/2 equal to or lower than 15 mV (letter A in table 3))”.

Take `O=C(NCc1ccnc(OCC(F)(F)F)c1)Nc1cccc2c1OCC2` [Compound 131]: in assay [1], the EC50 came out at 0.756 µM and the “Kv7.2/7.3 ΔV1/2” value came to 22.47 mV. Moreover, the Kv7.4 selectivity criteria result in assay [2] is reported as “B (Non-selective compounds showed Kv7.4 and/or Kv7.3/7.5 ΔV1/2 higher than 15 mV (letter B in table 3))”. Also, in assay [3], the Kv7.3/7.5 selectivity criteria result is “A (Selective compounds showed Kv7.4 and/or Kv7.3/7.5 ΔV1/2 equal to or lower than 15 mV (letter A in table 3))”.

Take `O=C(N[C@@H](CO)c1ccnc(OCC(F)(F)F)c1)N[C@H]1CCc2ccc(F)cc21` [Compound 99]: in assay [1], the EC50 was 12.8 µM and the “Kv7.2/7.3 ΔV1/2” value was determined as 29.92 mV. Besides, the Kv7.4 selectivity criteria entry in assay [2] is given as “B (Non-selective compounds showed Kv7.4 and/or Kv7.3/7.5 ΔV1/2 higher than 15 mV (letter B in table 3))”. Besides, the Kv7.3/7.5 selectivity criteria result in assay [3] is given as “B (Non-selective compounds showed Kv7.4 and/or Kv7.3/7.5 ΔV1/2 higher than 15 mV (letter B in table 3))”.

For `O=C(NCc1ccnc(OCC(F)(F)F)c1)NCC1CCC(F)(F)C1` (stereo not shown) [Compound 88, 1-((3,3-Difluorocyclopentyl)methyl)-3-((2-(2,2,2-trifluoroethoxy)pyridin-4-yl)methyl) urea], in assay [1], the EC50 was found to be 0.96 µM and the “Kv7.2/7.3 ΔV1/2” value was 30.26 mV. The Kv7.4 selectivity criteria entry in assay [2] is reported as “A (Selective compounds showed Kv7.4 and/or Kv7.3/7.5 ΔV1/2 equal to or lower than 15 mV (letter A in table 3))”. Besides, the Kv7.3/7.5 selectivity criteria entry in assay [3] was “B (Non-selective compounds showed Kv7.4 and/or Kv7.3/7.5 ΔV1/2 higher than 15 mV (letter B in table 3))”.

In the case of `O=C(NCCC1(C(F)(F)F)CC1)NCc1ccnc(OCc2ccc(F)cc2)c1` [Compound 14, 1-((2-((4-Fluorobenzyl)oxy)pyridin-4-yl)methyl)-3-(2-(1-(trifluoromethyl)cyclopropyl)ethyl)urea], in assay [1], the EC50 was 0.392 µM and the “Kv7.2/7.3 ΔV1/2” value is given as 26.52 mV. Besides, the Kv7.4 selectivity criteria entry in assay [2] is reported as “B (Non-selective compounds showed Kv7.4 and/or Kv7.3/7.5 ΔV1/2 higher than 15 mV (letter B in table 3))”. Moreover, the Kv7.3/7.5 selectivity criteria result in assay [3] is given as “A (Selective compounds showed Kv7.4 and/or Kv7.3/7.5 ΔV1/2 equal to or lower than 15 mV (letter A in table 3))”.
